The values that follow come from patent US9149488B2, “Pharmaceutical composition and use of diethyl (2-cyanoethyl)phosphonate” (Olatec Industries LLC, priority 2013, dated 2015).

Like-named read-outs stand apart in the source and are kept apart here.

For data set [1], the system named is arachidonic acid-induced ear swelling. Kind of data set: Topical arachidonic acid-induced ear swelling model in mice (topical administration). The data set is classed as in vivo, Male ICR mice. The protocol:
Diethyl(2-cyanoethyl)phosphonate, was obtained from Sigma-Aldrich and used in this experiment.
The test compound, indomethacin (positive control), and vehicle (acetone:ethanol/1:1) were evaluated for anti-inflammatory activity in a topical arachidonic acid-induced ear swelling model in mice.
Male ICR mice weighing 22±2 g were used and randomly divided; the test compound and vehicle control had 10 mice, and indomethacin had 5 mice. Arachidonic Acid (0.5 mg in 20 μl of acetone:ethanol/1:1) was applied topically to the anterior and posterior surfaces of the right ear of each mice. Test substances (in vehicle) and vehicle, as listed in Table 1 were similarly applied 30 min before and 15 min after arachidonic acid application. The thickness of the right ear and the left ear was measured and the difference calculated as an indication of the inflammation in the right ear. Ear swelling was measured by a Dyer model micrometer gauge at 60 and 90 minutes after arachidonic acid application as an index of inflammation. Percent inhibition was calculated according to the formula: Ic−It/Ic×100, where Ic and It refers to increase of ear thickness (mm) in control and treated mice, respectively. An ANOVA was done, and if p<0.05, a Dunnett's t test was employed to calculate significant difference between vehicle control and test compound treated groups. […]

The test system is the same in data set [2]. Kind of data set: Arachidonic acid-induced ear swelling in mice (intraperitoneal administration). Type of data set: in vivo. As to conditions: measured at 90 minutes. The protocol:
The protocols of this experiment were similar to Example 3, except the following differences. Test substance diethyl(2-cyanoethyl)phosphonate was dissolved in PBS to generate 1, 3 and 10 mg/mL testing solutions. Vehicle (PBS) at 10 mL/kg and diethyl(2-cyanoethyl)phosphonate at 10 mL/kg (10, 30, and 100 mg/kg) were administered intraperitoneally at 1 hour, and again 15 minutes before arachidonic acid (0.5 mg/ear) challenge. The positive control dexamethasone was administered orally 3 hours before arachidonic acid.
An ANOVA was done, and if p<0.05, a Dunnett's t test was employed to calculate significant difference between vehicle control and treated groups. Significance is set at P<0.05 level.
An ANOVA was done, and if p<0.05, a Dunnett's t test was employed to calculate significant difference between vehicle control and test compound treated groups. A pairwise Student's t test was used to calculate differences between the dexamethasone group and the control group. Significance is set at P<0.05 level.

The subject of data set [3] is tail flick response to heat stimulus (49° C. water bath). Kind of data set: Tail flick test in mice (oral administration). The data set is classed as in vivo. The method, then:
Tail flick test is a test of the pain response in animals. Tail flick test is used in basic pain research and to measure the effectiveness of analgesics, by observing the tail flick reaction to heat in an animal. This test assesses the nociceptive response to a local pain stimulus, and the ability of a drug to inhibit this response.
Vehicle control (water) and test compound diethyl(2-cyanoethyl)phosphonate in water were administered by oral gavage to mice with a volume of 10 mL/kg, twice, at 60 and 15 minutes before the first tail flick measurement. The test compound was administered at a dosage of 10, 30, or 100 mg/kg in water. The positive control compound morphine was administered by subcutaneous injection at 8 mg/kg with a volume of 8 mL/kg, at 15 minutes before the first tail flick measurement. Each group had 10 mice.
The response of mice to heat stimulus was evaluated by measuring the time of tail-flick or tail-flick latency from 49° C. water bath. Briefly, the animal was placed in a restrainer with its tail hanging down. Approximately 2 inches of the tail was immersed in a beaker of water at 38±1° C. for about 30 seconds, and this was done twice to acclimate the animal to the procedure.
Subsequently, approximately 2 inches of the tail was immersed in a beaker of water at 49±1° C., at which point a timer was started.
Tail flick measurements were made 60, 80, 100, and 120 minutes post administration of the first dosage of test compound. An ANOVA was done, and if p<0.05, a Dunnett's t test was employed to calculate significant difference between vehicle control and test compound treated groups. A pairwise Student's t test was used to calculate differences between the morphine group and the control group. […] Analysis with p-values <0.05 is considered significant.

Data set [4] relates to formalin-induced paw licking. Kind of data set: Formalin test in mice (oral administration). Type of data set: in vivo, Male CD-1 mice. The protocol: Formalin test is a model of continuous pain resulting from formalin-induced tissue injury. Nociceptive and inflammatory pain was induced by injection of a dilute formalin solution into the paw, resulting in nocifensive behavior including paw flinching. The formalin model encompasses inflammatory, neurogenic, and central mechanism of pain. The early phase of pain (from 0 to about 10 minutes) is due to nociceptive mechanism and the late phase of pain (from 10-40 minutes) is due to a combination of inflammatory pain and nociceptive mechanism. Pain behavior is assessed using manual paw licking measurements. The endpoints of the study are the number of paw licking events. (Hunskaar et al., Pain, 30:103-114, 1987; Li et al., Molecular Pain, 6:11, 2010)
Male CD-1 mice, about 34 g, were used in the study. Mice had free access to food and water, were maintained on a 12 hour: 12 hour light/dark schedule for the entire duration of the study, and housed in soft bedding five per cage.
Immediately prior to testing (at time 0), mice were restrained in a cloth and injected with 20 μL of a 5% formalin solution, subcutaneously into the dorsal surface of the left hind paw. Vehicle control (n=10, water) and test compound diethyl(2-cyanoethyl)phosphonate (n=9, in water) and were administered by oral gavage with a volume of 10 mL/kg to mice. The amounts of test compound were 10, 30, or 100 mg/kg per dose.
Positive control morphine was administered by subcutaneous injection at 4 mg/kg with a volume of 4 mL/kg to mice (n=10). […] The purpose of morphine is not to serve as a comparison with the test compound.
Morphine was subcutaneously administered once 15 minutes before formalin injection. The test compounds and vehicle control were orally administered twice (BID), at 60 and 15 minutes before formalin injection at time zero.
Following formalin injection, animals were placed in individual cages, and manually observed for 60 minutes. The licking events were recorded in five minute intervals continuously for a total of 60 minutes.
The number of licking events per minute was calculated between 0-10 minutes and 10-40 minutes for vehicle, positive control, and test compound. An ANOVA was done, and if p<0.05, a Dunnett's t test was employed to calculate significant difference between vehicle control and test compound treated groups. A pairwise Student's t test was used to calculate differences between the morphine group and the control group. Significance is set at P<0.05 level.

Data set [5] relates to formalin-induced paw licking. The method, then: The test compound diethyl(2-cyanoethyl)phosphonate (375 mM in vehicle, n=16) and vehicle control (acetone:ethanol 1:1, n=16) were administered topically by submerging the mouse left hind paw in the respective solution for about 30 seconds. The paw was then withdrawn and wiped with tissue to avoid excess dermal drying.
Positive control morphine was administered by subcutaneous injection at 4 mg/kg with a volume of 4 mL/kg to mice (n=16).
Morphine was subcutaneously administered once 15 minutes before formalin injection. The test compounds and vehicle control were topically administered twice (BID), at 90 and 15 minutes before formalin injection.
Following formalin injection, animals were placed in individual cages, and manually observed for 60 minutes. The licking events were recorded in five minute intervals continuously for a total of 40 minutes.
The number of licking events per minute was calculated between 0-10 minutes and 10-40 minutes for vehicle, positive control, and test compound. A two-sample t-test was done to compare the vehicle group with the test compound group. Significance is set at P<0.05 level. The same statistics were done comparing the vehicle group with the positive control group.

For data set [6], the system named is IL-6, TNFα, IFNγ, MIP-2 and RANTES. Kind of data set: Pro-inflammatory cytokine release in rat challenged in vivo with lipopolysaccharide. Conditions: given orally to rat, then lipopolysaccharide challenge in vivo.

For `CCOP(=O)(CCC#N)OCC` [Diethyl (2-cyanoethyl) phosphonate, Diethyl(2-cyanoethyl)phosphonate], the “Anti-inflammatory activity in mouse ear swelling model” value in data set [1] (applied topically, inflammation induced by arachidonic acid) is on record as “anti-inflammatory”. For the same molecule, the “% Inhibition of ear swelling” value in data set [1] (topical, 375 mM in acetone:ethanol (1:1), 20 μL (1.4 mg/ear) applied twice, 90 minutes after arachidonic acid) was 55%; in data set [2] (10 mg/kg intraperitoneally at 1 hour and 15 minutes before arachidonic acid) it was −8%; in data set [2] (30 mg/kg intraperitoneally at 1 hour and 15 minutes before arachidonic acid), 0%; in data set [2] (100 mg/kg intraperitoneally at 1 hour and 15 minutes before arachidonic acid) it was 34%; in data set [2] (100 mg/kg intraperitoneally at 1 hour and 15 minutes before arachidonic acid, listed as tested compound), 37%. Moreover, the “Tail flick latency compared with vehicle-treated mice” value in data set [3] (30 mg/kg oral, given twice, measured at 60, 80, 100, 120 minutes, FIG. 1) is “statistically significant tail flick latency at 60 and 80 minutes”; in data set [3] (100 mg/kg oral, given twice, measured at 60, 80, 100, 120 minutes, FIG. 1), “statistically significant tail flick latency at 60 and 100 minutes”. Further, the “Licks per min (Between 0-10 min)” value is 3.1 Licks per min in data set [4] (100 mg/kg oral BID, early phase) and 4.0 Licks per min in data set [5] (375 mM topical BID (paw submerged), early phase). The “Licks per min (Between 10-40 min)” value in data set [4] (100 mg/kg oral BID, late phase) is listed as 0.59 Licks per min; in data set [5] (375 mM topical BID (paw submerged), late phase), 1.1 Licks per min. Moreover, the Duration of efficacy result in data set [4] (100 mg/kg oral BID, after 40 minutes) is on record as “did not last after 40 minutes”. For the same molecule, the “Difference in the number of events vs control” value in data set [4] (100 mg/kg oral BID, early phase 0-10 minutes) is recorded as “no statistically significant difference”; in data set [5] (375 mM topical, early phase 0-10 minutes), “no statistically significant difference”. Also, the “Reduction in the number of events vs vehicle” value (“Reduction in the number” for short) in data set [4] (100 mg/kg oral BID, late phase 10-40 minutes) is on record as “statistically significant (p<0.05) reduction”; in data set [5] (375 mM topical, late phase 10-40 minutes), “statistically significant (p<0.05) reduction”. Further, in data set [5] (topical application without injection of formalin), the “Paw licking events after topical application alone” value is “negligible number of paw licking events”. For the same molecule, the “Inhibition of pro-inflammatory cytokine release (IL-6, TNFα, IFNγ, MIP-2 and RANTES)” value in data set [6] is on record as “effective in inhibiting pro-inflammatory cytokine release”.

Turning to `CN1CC[C@]23c4c5ccc(O)c4O[C@H]2[C@@H](O)C=C[C@H]3[C@H]1C5` [Morphine, morphine, reference compound], in data set [3] (mouse, in vivo), the “Tail flick latency compared with vehicle-treated mice” value is given as “statistically significant tail flick latency at all measured time points”. Further, in data set [4] (mouse, in vivo), the Duration of efficacy result is “did not last after 40 minutes”, the “Licks per min (Between 0-10 min)” value was 2.1 Licks per min, the “Licks per min (Between 10-40 min)” value is 0.47 Licks per min and the “Reduction in the number” value is “statistically significant (p<0.05) reductions”. For the same molecule, in data set [5] (mouse, in vivo), the “Licks per min (Between 0-10 min)” value was determined as 2.5 Licks per min, the “Licks per min (Between 10-40 min)” value was 0.53 Licks per min and the “Reduction in the number” value is “statistically significant (p<0.05) reductions”.
